Peptide text beside a SMILES is read from it. * marks the point of attachment. Cbz = O=C(OCc1ccccc1)*
Tested on: WASp
Assay: WASp ubiquitylation in Meg-01 cells (immunoprecipitation, anti-ubiquitin blot)
Assay type: cell-based, human
Details: Meg-01 cells after activation, treated vs untreated
Method: Freshly-isolated platelets were stimulated with 10 μM of TRAP-6 for the indicated time points, followed by lysis. WIP (FIG. 7A) or WASp (FIG. 7B) were immunoprecipitated from the lysates and analyzed by western blot for co-immunoprecipitation, using anti-WASp, anti-WIP or anti-PKCθ antibodies. WASp immunoprecipitates were immunoblotted for WASp ubiquitylation using anti-ubiquitin (Ub) antibody (FIG. 7C). Ubiquitylated WASp appears as a smear of bands above the MW of 65 kDa with a prominent band at ˜81 kDa. […] Blots are representative of three independent experiments. Meg-01 megakaryocyte cell line was activated in the presence (+) or absence (−) of MG132, followed by lysis (FIG. 7E). WASp ubiquitylation was determined by co-immunoprecipitation analysis as in FIG. 7C. […] PKCθ and WASp protein expression levels were analyzed by western blot with anti-PKCθ and anti-WASp antibodies, and with anti-GAPDH as loading control. Relative protein expression was determined by densitometric analysis and is presented below the corresponding lanes. […]
Insufficient WASp expression in platelets and megakaryocytes is the cause of microthrombocytopenia of WAS/XLT patients (Albert et al 2010, Lutskiy et al, 2007). […] Similarly, reciprocal co-precipitation was detected between WASp and WIP during the first two minutes of activation when WASp was immunoprecipitated (FIG. 7B). […]

In the case of `CC(C)C[C@@H](C=O)NC(=O)[C@H](CC(C)C)NC(=O)[C@H](CC(C)C)NC(=O)OCc1ccccc1` [MG132] (Cbz-Leu-Leu-Leu-aldehyde), the WASp ubiquitylation is reported as “more intense”.

— patent publication US12150940B2, “WASp-protecting small molecules, compositions, methods and uses thereof in the treatment of innate and acquired immune-related disorders or conditions” (BAR ILAN UNIVERSITY, priority 2016, dated 2024)
